ChEMBL document CHEMBL1201861, “Genomics of Drug Sensitity in Cancer screening data, Wellcome Trust Sanger Institute”

Each molecule was assayed on COLO-800 (assay: cells). Settings: Homo sapiens, COLO-800.
Format: functional, cell-based, Homo sapiens
Description: SANGER: Inhibition of human COLO-800 cell growth in a cell viability assay.

Q: Which IC50 does the source give for `Cc1ccc(-c2c(C(=O)CCl)n(CCCO)c3ncnc(N)c23)cc1` here?
A: The IC50 was > 4 µM.

Each molecule was assayed on COLO-829 (assay: cells). Settings: Homo sapiens, COLO-829.
Format: functional, cell-based, Homo sapiens
Description: SANGER: Inhibition of human COLO-829 cell growth in a cell viability assay.

Q: `Cc1ccc(-c2c(C(=O)CCl)n(CCCO)c3ncnc(N)c23)cc1` was tested. Which IC50 did it give?
A: The IC50 was > 4 µM.

These molecules were tested on CP66-MEL (assay: cells). Settings: Homo sapiens, CP66-MEL.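 Further: growth inhibition of CP66-MEL cells determined in a cell viability assay.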
Format: functional, cell-based, Homo sapiens
Description: SANGER: Inhibition of human CP66-MEL cell growth in a cell viability assay.

Q: How did the IC50 turn out when `Cc1ccc(-c2c(C(=O)CCl)n(CCCO)c3ncnc(N)c23)cc1` was run?
A: Its IC50 is > 4 µM.

These molecules were tested on CTV-1 (assay: cells). Settings: Homo sapiens, CTV-1.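 Further: growth inhibition of the cell line, read out with a cell viability assay.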
Format: functional, cell-based, Homo sapiens
Description: SANGER: Inhibition of human CTV-1 cell growth in a cell viability assay.

Q: `Cc1ccc(-c2c(C(=O)CCl)n(CCCO)c3ncnc(N)c23)cc1` was tested. Which IC50 did it give?
A: The IC50 was > 4 µM.

What follows are molecules tested on DSH1 (assay: cells). Settings: Homo sapiens, DSH1.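 Further: growth inhibition of human DSH1 cells, measured with a cell viability readout.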
Format: functional, cell-based, Homo sapiens
Description: SANGER: Inhibition of human DSH1 cell growth in a cell viability assay.

Q: With `Cc1ccc(-c2c(C(=O)CCl)n(CCCO)c3ncnc(N)c23)cc1` as the molecule, how does the IC50 read?
A: The IC50 was > 4 µM.

Each molecule was assayed on EC-GI-10 (assay: cells). Settings: Homo sapiens, EC-GI-10.
Format: functional, cell-based, Homo sapiens
Description: SANGER: Inhibition of human EC-GI-10 cell growth in a cell viability assay.

Q: For `Cc1ccc(-c2c(C(=O)CCl)n(CCCO)c3ncnc(N)c23)cc1`, which IC50 is on record?
A: Its IC50 is > 4 µM.

The molecules below were run on ES1 (assay: cells). Settings: Homo sapiens, ES1.
Format: functional, cell-based, Homo sapiens
Description: SANGER: Inhibition of human ES1 cell growth in a cell viability assay.

Q: With `Cc1ccc(-c2c(C(=O)CCl)n(CCCO)c3ncnc(N)c23)cc1` as the molecule, how does the IC50 read?
A: Its IC50 is > 4 µM.

These molecules were tested on ES7 (assay: cells). Settings: Homo sapiens, ES7.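 Further: growth inhibition of cultured human ES7 cells, read out as cell viability.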
Format: functional, cell-based, Homo sapiens
Description: SANGER: Inhibition of human ES7 cell growth in a cell viability assay.

Q: How did the IC50 turn out when `Cc1ccc(-c2c(C(=O)CCl)n(CCCO)c3ncnc(N)c23)cc1` was run?
A: Its IC50 is > 4 µM.

What follows are molecules tested on EW-18 (assay: cells). Settings: Homo sapiens, EW-18.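 Further: growth inhibition of EW-18 cells, read out by a cell viability assay.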
Format: functional, cell-based, Homo sapiens
Description: SANGER: Inhibition of human EW-18 cell growth in a cell viability assay.

Q: With `Cc1ccc(-c2c(C(=O)CCl)n(CCCO)c3ncnc(N)c23)cc1` as the molecule, how does the IC50 read?
A: The IC50 was > 4 µM.

These molecules were tested on EOL1 (assay: cells). Settings: Homo sapiens, EOL1.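 Further: growth inhibition of EoL-1 cells, read out by a cell viability assay.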
Format: functional, cell-based, Homo sapiens
Description: SANGER: Inhibition of human EoL-1-cell cell growth in a cell viability assay.

Q: How did the IC50 turn out when `Cc1ccc(-c2c(C(=O)CCl)n(CCCO)c3ncnc(N)c23)cc1` was run?
A: The IC50 was > 4 µM.

The molecules below were run on GB-1 (assay: cells). Settings: Homo sapiens, GB-1.
Format: functional, cell-based, Homo sapiens
Description: SANGER: Inhibition of human GB-1 cell growth in a cell viability assay.

Q: How did the IC50 turn out when `Cc1ccc(-c2c(C(=O)CCl)n(CCCO)c3ncnc(N)c23)cc1` was run?
A: The IC50 was > 4 µM.

What follows are molecules tested on GT3TKB (assay: cells). Settings: Homo sapiens, GT3TKB.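 Further: growth inhibition of the cell line, read out with a cell viability assay.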
Format: functional, cell-based, Homo sapiens
Description: SANGER: Inhibition of human GT3TKB cell growth in a cell viability assay.

Q: For `Cc1ccc(-c2c(C(=O)CCl)n(CCCO)c3ncnc(N)c23)cc1`, which IC50 is on record?
A: Its IC50 is > 4 µM.

The molecules below were run on HDLM-2 (assay: cells). Settings: Homo sapiens, HDLM-2.
Format: functional, cell-based, Homo sapiens
Description: SANGER: Inhibition of human HDLM-2 cell growth in a cell viability assay.

Q: For `Cc1ccc(-c2c(C(=O)CCl)n(CCCO)c3ncnc(N)c23)cc1`, which IC50 is on record?
A: The IC50 was > 4 µM.

The molecules below were run on KLE (assay: cells). Settings: Homo sapiens, KLE.
Format: functional, cell-based, Homo sapiens
Description: SANGER: Inhibition of human KLE cell growth in a cell viability assay.

Q: How did the IC50 turn out when `Cc1ccc(-c2c(C(=O)CCl)n(CCCO)c3ncnc(N)c23)cc1` was run?
A: Its IC50 is > 4 µM.

What follows are molecules tested on KMOE-2 (assay: cells). Settings: Homo sapiens, KMOE-2.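 Further: growth inhibition of human KMOE-2 cells, read out with a cell viability assay.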
Format: functional, cell-based, Homo sapiens
Description: SANGER: Inhibition of human KMOE-2 cell growth in a cell viability assay.

Q: For `Cc1ccc(-c2c(C(=O)CCl)n(CCCO)c3ncnc(N)c23)cc1`, which IC50 is on record?
A: Its IC50 is > 4 µM.

These molecules were tested on KNS-81-FD (assay: cells). Settings: Homo sapiens, KNS-81-FD.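 Further: growth inhibition of KNS-81-FD cells, read out with a cell viability assay.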
Format: functional, cell-based, Homo sapiens
Description: SANGER: Inhibition of human KNS-81-FD cell growth in a cell viability assay.

Q: Which IC50 does the source give for `Cc1ccc(-c2c(C(=O)CCl)n(CCCO)c3ncnc(N)c23)cc1` here?
A: The IC50 was > 4 µM.

The molecules below were run on LAN-6 (assay: cells). Settings: Homo sapiens, LAN-6.
Format: functional, cell-based, Homo sapiens
Description: SANGER: Inhibition of human LAN-6 cell growth in a cell viability assay.

Q: With `Cc1ccc(-c2c(C(=O)CCl)n(CCCO)c3ncnc(N)c23)cc1` as the molecule, how does the IC50 read?
A: Its IC50 is > 4 µM.

What follows are molecules tested on LB1047-RCC (assay: cells). Settings: Homo sapiens, LB1047-RCC.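 Further: inhibition of cell growth, determined with a cell viability assay.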
Format: functional, cell-based, Homo sapiens
Description: SANGER: Inhibition of human LB1047-RCC cell growth in a cell viability assay.

Q: For `Cc1ccc(-c2c(C(=O)CCl)n(CCCO)c3ncnc(N)c23)cc1`, which IC50 is on record?
A: The IC50 was > 4 µM.

Each molecule was assayed on LS-123 (assay: cells). Settings: Homo sapiens, LS-123.
Format: functional, cell-based, Homo sapiens
Description: SANGER: Inhibition of human LS-123 cell growth in a cell viability assay.

Q: For `Cc1ccc(-c2c(C(=O)CCl)n(CCCO)c3ncnc(N)c23)cc1`, which IC50 is on record?
A: Its IC50 is > 4 µM.

Each molecule was assayed on LXF-289 cell line (assay: cells). Settings: Homo sapiens, LXF-289.
Format: functional, cell-based, Homo sapiens
Description: SANGER: Inhibition of human LXF-289 cell growth in a cell viability assay.

Q: `Cc1ccc(-c2c(C(=O)CCl)n(CCCO)c3ncnc(N)c23)cc1` was tested. Which IC50 did it give?
A: Its IC50 is > 4 µM.

The molecules below were run on MHH-NB-11 (assay: cells). Settings: Homo sapiens, MHH-NB-11.
Format: functional, cell-based, Homo sapiens
Description: SANGER: Inhibition of human MHH-NB-11 cell growth in a cell viability assay.

Q: For `Cc1ccc(-c2c(C(=O)CCl)n(CCCO)c3ncnc(N)c23)cc1`, which IC50 is on record?
A: Its IC50 is > 4 µM.

What follows are molecules tested on MHH-PREB-1 (assay: cells). Settings: Homo sapiens, MHH-PREB-1.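 Further: cell viability assay measuring inhibition of proliferation of human MHH-PREB-1 cells.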
Format: functional, cell-based, Homo sapiens
Description: SANGER: Inhibition of human MHH-PREB-1 cell growth in a cell viability assay.

Q: Which IC50 does the source give for `Cc1ccc(-c2c(C(=O)CCl)n(CCCO)c3ncnc(N)c23)cc1` here?
A: The IC50 was 3.94 µM.

What follows are molecules tested on ML-2 (assay: cells). Settings: Homo sapiens, ML-2.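 Further: growth inhibition of ML-2 cells, measured with a cell viability readout.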
Format: functional, cell-based, Homo sapiens
Description: SANGER: Inhibition of human ML-2 cell growth in a cell viability assay.

Q: With `Cc1ccc(-c2c(C(=O)CCl)n(CCCO)c3ncnc(N)c23)cc1` as the molecule, how does the IC50 read?
A: Its IC50 is > 4 µM.

Each molecule was assayed on NB69 (assay: cells). Settings: Homo sapiens, NB69.
Format: functional, cell-based, Homo sapiens
Description: SANGER: Inhibition of human NB69 cell growth in a cell viability assay.

Q: With `Cc1ccc(-c2c(C(=O)CCl)n(CCCO)c3ncnc(N)c23)cc1` as the molecule, how does the IC50 read?
A: The IC50 was > 4 µM.

What follows are molecules tested on NCI-H1648 (assay: cells). Settings: Homo sapiens, NCI-H1648.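 Further: cell viability assay measuring inhibition of NCI-H1648 cell growth, from the Sanger screening data.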
Format: functional, cell-based, Homo sapiens
Description: SANGER: Inhibition of human NCI-H1648 cell growth in a cell viability assay.

Q: `Cc1ccc(-c2c(C(=O)CCl)n(CCCO)c3ncnc(N)c23)cc1` was tested. Which IC50 did it give?
A: The IC50 was > 4 µM.

What follows are molecules tested on NCI-H510A (assay: cells). Settings: Homo sapiens, NCI-H510A.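 Further: growth inhibition of NCI-H510A cells, read out with a cell viability assay.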
Format: functional, cell-based, Homo sapiens
Description: SANGER: Inhibition of human NCI-H510A cell growth in a cell viability assay.

Q: With `Cc1ccc(-c2c(C(=O)CCl)n(CCCO)c3ncnc(N)c23)cc1` as the molecule, how does the IC50 read?
A: Its IC50 is > 4 µM.

These molecules were tested on SNU1 (assay: cells). Settings: Homo sapiens, SNU1.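 Further: growth inhibition of human NCI-SNU-1 cells, measured with a cell viability assay.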
Format: functional, cell-based, Homo sapiens
Description: SANGER: Inhibition of human NCI-SNU-1 cell growth in a cell viability assay.

Q: With `Cc1ccc(-c2c(C(=O)CCl)n(CCCO)c3ncnc(N)c23)cc1` as the molecule, how does the IC50 read?
A: Its IC50 is > 4 µM.

These molecules were tested on NKM-1 (assay: cells). Settings: Homo sapiens, NKM-1.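 Further: growth inhibition of NKM-1 cells, read out with a cell viability assay.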
Format: functional, cell-based, Homo sapiens
Description: SANGER: Inhibition of human NKM-1 cell growth in a cell viability assay.

Q: Which IC50 does the source give for `Cc1ccc(-c2c(C(=O)CCl)n(CCCO)c3ncnc(N)c23)cc1` here?
A: Its IC50 is > 4 µM.

The molecules below were run on ONS-76 (assay: cells). Settings: Homo sapiens, ONS-76.
Format: functional, cell-based, Homo sapiens
Description: SANGER: Inhibition of human ONS-76 cell growth in a cell viability assay.

Q: How did the IC50 turn out when `Cc1ccc(-c2c(C(=O)CCl)n(CCCO)c3ncnc(N)c23)cc1` was run?
A: Its IC50 is > 4 µM.

What follows are molecules tested on RPMI-8866 (assay: cells). Settings: Homo sapiens, RPMI-8866.
Format: functional, cell-based, Homo sapiens
Description: SANGER: Inhibition of human RPMI-8866 cell growth in a cell viability assay.

Q: Which IC50 does the source give for `Cc1ccc(-c2c(C(=O)CCl)n(CCCO)c3ncnc(N)c23)cc1` here?
A: The IC50 was > 4 µM.

The molecules below were run on SCC-15 (assay: cells). Settings: Homo sapiens, SCC-15.
Format: functional, cell-based, Homo sapiens
Description: SANGER: Inhibition of human SCC-15 cell growth in a cell viability assay.

Q: `Cc1ccc(-c2c(C(=O)CCl)n(CCCO)c3ncnc(N)c23)cc1` was tested. Which IC50 did it give?
A: Its IC50 is > 4 µM.

These molecules were tested on SF-126 (assay: cells). Settings: Homo sapiens, SF-126.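 Further: growth inhibition of human SF126 cells, read out with a cell viability assay.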
Format: functional, cell-based, Homo sapiens
Description: SANGER: Inhibition of human SF126 cell growth in a cell viability assay.

Q: How did the IC50 turn out when `Cc1ccc(-c2c(C(=O)CCl)n(CCCO)c3ncnc(N)c23)cc1` was run?
A: Its IC50 is > 4 µM.

What follows are molecules tested on SK-UT-1 (assay: cells). Settings: Homo sapiens, SK-UT-1.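 Further: growth inhibition of SK-UT-1 cells, measured by a cell viability assay.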
Format: functional, cell-based, Homo sapiens
Description: SANGER: Inhibition of human SK-UT-1 cell growth in a cell viability assay.

Q: `Cc1ccc(-c2c(C(=O)CCl)n(CCCO)c3ncnc(N)c23)cc1` was tested. Which IC50 did it give?
A: Its IC50 is > 4 µM.

Each molecule was assayed on SNB-75 (assay: cells). Settings: Homo sapiens, SNB-75.
Format: functional, cell-based, Homo sapiens
Description: SANGER: Inhibition of human SNB75 cell growth in a cell viability assay.

Q: How did the IC50 turn out when `Cc1ccc(-c2c(C(=O)CCl)n(CCCO)c3ncnc(N)c23)cc1` was run?
A: The IC50 was > 4 µM.

Each molecule was assayed on SW872 (assay: cells). Settings: Homo sapiens, SW872.
Format: functional, cell-based, Homo sapiens
Description: SANGER: Inhibition of human SW872 cell growth in a cell viability assay.

Q: `Cc1ccc(-c2c(C(=O)CCl)n(CCCO)c3ncnc(N)c23)cc1` was tested. Which IC50 did it give?
A: Its IC50 is > 4 µM.

These molecules were tested on SW982 (assay: cells). Settings: Homo sapiens, SW982.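 Further: growth inhibition of SW982 cells, read out with a cell viability assay.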
Format: functional, cell-based, Homo sapiens
Description: SANGER: Inhibition of human SW982 cell growth in a cell viability assay.

Q: With `Cc1ccc(-c2c(C(=O)CCl)n(CCCO)c3ncnc(N)c23)cc1` as the molecule, how does the IC50 read?
A: Its IC50 is 1.31 µM.

What follows are molecules tested on 697 (assay: cells). Settings: Homo sapiens.
Format: functional, cell-based, Homo sapiens
Description: SANGER: Inhibition of human 697 cell growth in a cell viability assay.

Q: With `Cc1ccc(-c2c(C(=O)CCl)n(CCCO)c3ncnc(N)c23)cc1` as the molecule, how does the IC50 read?
A: The IC50 was 0.293 µM.

Each molecule was assayed on A253 cell line (assay: cells). Settings: Homo sapiens, A253.
Format: functional, cell-based, Homo sapiens
Description: SANGER: Inhibition of human A253 cell growth in a cell viability assay.

Q: How did the IC50 turn out when `Cc1ccc(-c2c(C(=O)CCl)n(CCCO)c3ncnc(N)c23)cc1` was run?
A: The IC50 was > 4 µM.

Each molecule was assayed on BB49-HNC (assay: cells). Settings: Homo sapiens, BB49-HNC.
Format: functional, cell-based, Homo sapiens
Description: SANGER: Inhibition of human BB49-HNC cell growth in a cell viability assay.

Q: For `Cc1ccc(-c2c(C(=O)CCl)n(CCCO)c3ncnc(N)c23)cc1`, which IC50 is on record?
A: Its IC50 is > 4 µM.

Each molecule was assayed on TE-12 (assay: cells). Settings: Homo sapiens, TE-12.
Format: functional, cell-based, Homo sapiens
Description: SANGER: Inhibition of human TE-12 cell growth in a cell viability assay.

Q: For `Cc1ccc(-c2c(C(=O)CCl)n(CCCO)c3ncnc(N)c23)cc1`, which IC50 is on record?
A: Its IC50 is > 4 µM.

These molecules were tested on TE-8 (assay: cells). Settings: Homo sapiens, TE-8.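 Further: growth inhibition of TE-8 cells, measured with a cell viability readout.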
Format: functional, cell-based, Homo sapiens
Description: SANGER: Inhibition of human TE-8 cell growth in a cell viability assay.

Q: With `Cc1ccc(-c2c(C(=O)CCl)n(CCCO)c3ncnc(N)c23)cc1` as the molecule, how does the IC50 read?
A: Its IC50 is 1.97 µM.

These molecules were tested on TGBC1TKB (assay: cells). Settings: Homo sapiens, TGBC1TKB.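 Further: growth inhibition of TGBC1TKB cells, read out by a cell viability assay.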
Format: functional, cell-based, Homo sapiens
Description: SANGER: Inhibition of human TGBC1TKB cell growth in a cell viability assay.

Q: `Cc1ccc(-c2c(C(=O)CCl)n(CCCO)c3ncnc(N)c23)cc1` was tested. Which IC50 did it give?
A: The IC50 was > 4 µM.

The molecules below were run on TGBC24TKB (assay: cells). Settings: Homo sapiens, TGBC24TKB.
Format: functional, cell-based, Homo sapiens
Description: SANGER: Inhibition of human TGBC24TKB cell growth in a cell viability assay.

Q: For `Cc1ccc(-c2c(C(=O)CCl)n(CCCO)c3ncnc(N)c23)cc1`, which IC50 is on record?
A: Its IC50 is > 4 µM.

These molecules were tested on U-266 (assay: cells). Settings: Homo sapiens, U-266.
Format: functional, cell-based, Homo sapiens
Description: SANGER: Inhibition of human U-266 cell growth in a cell viability assay.

Q: Which IC50 does the source give for `Cc1ccc(-c2c(C(=O)CCl)n(CCCO)c3ncnc(N)c23)cc1` here?
A: The IC50 was > 4 µM.

These molecules were tested on VA-ES-BJ (assay: cells). Settings: Homo sapiens, VA-ES-BJ.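 Further: growth inhibition of the VA-ES-BJ cell line, read out by a cell viability assay.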
Format: functional, cell-based, Homo sapiens
Description: SANGER: Inhibition of human VA-ES-BJ cell growth in a cell viability assay.

Q: Which IC50 does the source give for `Cc1ccc(-c2c(C(=O)CCl)n(CCCO)c3ncnc(N)c23)cc1` here?
A: Its IC50 is > 4 µM.

What follows are molecules tested on no-11 (assay: cells). Settings: Homo sapiens.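 Further: growth inhibition of human NO-11 cells, read out with a cell viability assay.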
Format: functional, cell-based, Homo sapiens
Description: SANGER: Inhibition of human no-11 cell growth in a cell viability assay.

Q: `Cc1ccc(-c2c(C(=O)CCl)n(CCCO)c3ncnc(N)c23)cc1` was tested. Which IC50 did it give?
A: Its IC50 is > 4 µM.

These molecules were tested on CCRF-CEM (assay: cells). Settings: Homo sapiens, CCRF-CEM.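 Further: inhibition of CCRF-CEM cell growth, measured by a cell viability assay.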
Format: functional, cell-based, Homo sapiens
Description: SANGER: Inhibition of human CCRF-CEM cell growth in a cell viability assay.

Q: `Cc1ccc(-c2c(C(=O)CCl)n(CCCO)c3ncnc(N)c23)cc1` was tested. Which IC50 did it give?
A: Its IC50 is 2.93 µM.

The molecules below were run on COLO-668 (assay: cells). Settings: Homo sapiens, COLO-668.
Format: functional, cell-based, Homo sapiens
Description: SANGER: Inhibition of human COLO-668 cell growth in a cell viability assay.

Q: With `Cc1ccc(-c2c(C(=O)CCl)n(CCCO)c3ncnc(N)c23)cc1` as the molecule, how does the IC50 read?
A: Its IC50 is > 4 µM.

Each molecule was assayed on COLO-684 (assay: cells). Settings: Homo sapiens, COLO-684.
Format: functional, cell-based, Homo sapiens
Description: SANGER: Inhibition of human COLO-684 cell growth in a cell viability assay.

Q: For `Cc1ccc(-c2c(C(=O)CCl)n(CCCO)c3ncnc(N)c23)cc1`, which IC50 is on record?
A: The IC50 was > 4 µM.
